# Source: patent publication US20200239530A1, “COMPOUNDS AND METHODS OF MODULATING PROTEIN DEGRADATION” (Vividion Therapeutics, Inc., priority 2017, published 2020)
# Molecular target: T1, TRIM33 E3 ubiquitin-protein ligase TRIM33 (Homo sapiens, UniProt Q9UPN9)
# T1 construct: Cells were resuspended in cold PBS on ice and sonicated with a probe sonicator to achieve lysis; endogenous in cells
# T1 sequence (Q9UPN9 1-1127): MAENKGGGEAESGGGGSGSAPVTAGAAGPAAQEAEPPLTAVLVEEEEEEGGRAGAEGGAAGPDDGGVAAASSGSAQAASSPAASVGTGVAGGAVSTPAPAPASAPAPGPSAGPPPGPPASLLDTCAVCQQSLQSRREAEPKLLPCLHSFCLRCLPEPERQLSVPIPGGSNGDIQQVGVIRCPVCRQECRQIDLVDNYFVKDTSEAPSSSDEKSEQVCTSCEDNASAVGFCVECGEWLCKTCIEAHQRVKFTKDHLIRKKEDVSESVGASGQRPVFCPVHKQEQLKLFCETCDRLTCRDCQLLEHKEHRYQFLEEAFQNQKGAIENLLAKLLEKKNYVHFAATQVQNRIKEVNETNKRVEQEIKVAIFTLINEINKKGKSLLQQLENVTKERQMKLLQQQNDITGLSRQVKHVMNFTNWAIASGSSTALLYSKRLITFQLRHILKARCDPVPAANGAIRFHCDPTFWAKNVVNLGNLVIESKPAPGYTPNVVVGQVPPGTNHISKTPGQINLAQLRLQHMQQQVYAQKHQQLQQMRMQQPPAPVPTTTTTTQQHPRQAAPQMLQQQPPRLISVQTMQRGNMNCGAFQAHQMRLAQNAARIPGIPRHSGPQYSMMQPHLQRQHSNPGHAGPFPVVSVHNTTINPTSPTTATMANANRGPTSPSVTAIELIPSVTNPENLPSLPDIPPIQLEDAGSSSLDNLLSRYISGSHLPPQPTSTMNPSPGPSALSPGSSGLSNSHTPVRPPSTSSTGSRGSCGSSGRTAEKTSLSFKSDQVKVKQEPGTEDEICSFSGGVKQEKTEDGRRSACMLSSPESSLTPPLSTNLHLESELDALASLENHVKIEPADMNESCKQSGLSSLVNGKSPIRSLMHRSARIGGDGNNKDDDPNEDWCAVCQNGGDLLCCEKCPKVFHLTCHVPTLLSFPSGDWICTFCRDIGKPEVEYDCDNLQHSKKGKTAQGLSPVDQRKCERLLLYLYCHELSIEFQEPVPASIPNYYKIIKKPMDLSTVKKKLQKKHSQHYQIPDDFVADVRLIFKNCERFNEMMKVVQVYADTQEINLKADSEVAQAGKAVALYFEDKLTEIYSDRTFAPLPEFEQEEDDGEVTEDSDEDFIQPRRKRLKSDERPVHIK
# Assay: Cysteine liganding, probe competition
# Type: binding
# Procedure, shortened: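 Probe competition in native proteome: 5 mg/ml lysate, compound 1 hr 25° C, then desthiobiotin iodoacetamide (10 mM stock) 1 hr 25° C; acetone ppt, urea/DTT reduction, iodoacetamide alkylation, trypsin, streptavidin pull-down.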
SMILES,"Liganded (TRIM33 Res# 582, uniprot Q9UPN9)","KB03_500 uM_percent_inhibition (500 uM, UniProt Q9UPN9)","Liganded (TRIM33 Res# 153, uniprot Q9UPN9)"
COc1ccc2c(c1)CCCN2C(=O)CCl [KB02],YES,–,–
O=C(CCl)Nc1cc(C(F)(F)F)cc(C(F)(F)F)c1 [KBO3],–,86%,YES
